Assay [1] relates to A549 Human lung carcinoma cells. Put plainly: A549 Human Lung Cell Assay (transfected cells, dexamethasone challenge, luciferase read-out). The class given is cell-based. The following applies: test compound 10 min then dexamethasone challenge, 24 h, Luc-assay, read-out: A 549 IC50. The procedure: A549Human Lung Cell Assay
A549Human lung carcinoma cells were grown in F-12K Nutrient Mixture containing 10% (v/v) fetal bovine serum (FBS; Invitrogen), 2 mM glutamine and 0.15% sodium dicarbonate (Invitrogen).
A549 cells were split 1 to 3 in 175 cm tissue culture flask. The cells were incubated at 37° C. in CO2 incubator until the cells were 95% confluent (typically 24-30 hours).
The following solutions were prepared in sterile tubes: (a) Solution A 1.5 μg/ml of DNA in 8.5 ml OPTI-MEM I Reduced Serum Medium. (GIBCO cat# 31985) and (b) Solution B: 6 μl/ml of DMRIE-C Reagent into […] OPTI-MEM I. The two solutions were combined and mixed gently, then incubated at room temperature for 40 minutes.
The A549 cells prepared above were washed with […] of OPTI-MEM I. The medium was removed and 17 ml of the lipid-DNA complex solution was overlayed onto cells. The cells ere then incubated for 16 h at 37° C. in CO2 incubator. The DNA-containing medium was removed and 30 ml of growth medium was added. (5% Charcoal treated FBS) After 5-6 h, the cells were seeded in a 96 well plate and the cells incubated overnight at 37° C. in CO2 incubator.
To each well was then added 5 μl of test compounds and the cells incubated at 37° C. for 10 min. 5 μL of dexamathasone (CAS [50-02-2]), was then added to each well for challenger and the cells incubated at 37° C. in CO2 incubator for 24 h. 100 μl of Luc-assay buffer was then added into each cell well and the cells incubated for 30 min at room temperature. A 150 μL sample from each well was then transferred into a DYNEX Microlitel plate and read on Top-counter.
(§1) Representative compounds of the present invention were tested according to the procedures described in Examples 45 and 46 above, with results as listed in Table 2 below.

Assay [2] has as its system T47D human breast cancer cells. Put plainly: T47D Human Breast Cancer Cells Assay (alkaline phosphatase, luminescence). The class given is cell-based. The procedure: T47D Human Breast Cancer Cells Assay
T47D human breast cancer cells were grown in RPMI medium without phenol red (Invitrogen) containing 10% (v/v) heat-inactivated fetal bovine serum (FBS; Hyclone), 1% (v/v) penicillin-streptomycin (Invitrogen), 1% (w/v) glutamine (Invitrogen), and […] insulin (Sigma). Incubation conditions were 37° C. in a humidified 5% (v/v) carbon dioxide environment.
The cells were plated in 96-well tissue culture plates at 10,000 cells per well in assay medium [RPMI medium without phenol red (Invitrogen) containing 5% (v/v) charcoal-treated FBS (Hyclone) and 1% (v/v) penicillin-streptomycin (Invitrogen)]. Two days later, the medium was decanted and test compound or control were added at a final concentration of 0.1% (v/v) dimethyl sulfoxide in fresh assay medium. Twenty-four hours later, an alkaline phosphatase assay was performed using a SEAP kit (BD Biosciences Clontech, Palo Alto, Calif.). Briefly, the medium was decanted and the cells were fixed for 30 minutes at room temperature with 5% (v/v) formalin (Sigma). The cells were washed once with room temperature Hank's buffered saline solution (Invitrogen). Equal volumes (0.05 mL) of 1× Dilution Buffer, Assay Buffer and 1:20 substrate/enhancer mixture were then added. After 1 hour incubation at room temperature in the dark, the lysate was transferred to a white 96-well plate (Dynex) and luminescence was read using a LuminoSkan Ascent (Thermo Electron, Woburn, Mass.).
as §1

[3] abbreviates: read-out: T47D IC50, T47D cells, 24 h with test compound, alkaline phosphatase assay (SEAP kit).
[4] abbreviates: Homo sapiens, T47D, 24 h, read-out: T47D IC50 (nM), T47D cells, 24 h with test compound, alkaline phosphatase assay (SEAP kit).

Each structure is given as a SMILES string. Where two headings read alike, the source gives them in different places.

`COc1ccc([C@H]2OC[C@@]3(C)C(CC[C@@]3(O)C#Cc3ccccc3)C3CCC4=CC(=O)CCC4=C32)cc1` (stereo partly shown) [Compound 16, 1-Hydroxy-10-(4-methoxy-phenyl)-12a-methyl-1-phenylethynyl-2,3,3a,3b,4,5,9,10,12,12a-decahydro-1H,8H-11-oxa-naphtho[2,1-e]azulen-7-one]: the values for the IC50 in assay [1] (A549 cells) and in assay [2] (setting [3]) were over 3000 nM and over 1000 nM, respectively.

In the case of `COc1ccc([C@H]2OC[C@@]3(C)C(CC[C@@]3(O)C#Cc3ccccc3)C3CCC4=CC(=O)CCC4=C32)cc1` (stereo in doubt) [Compound 23, 1-Hydroxy-10-(4-methoxy-phenyl)-12a-methyl-1-phenylethynyl-2,3,3a,3b,4,5,9,10,12,12a-decahydro-1H,8H-11-oxa-naphtho[2,1-e]azulen-7-one], the results for the IC50 in assay [1] (A549 cells) and in assay [2] (setting [3]) were 237 nM and 260 nM, respectively.

In the case of `CC#C[C@]1(O)CCC2C3CCC4=CC(=O)CCC4=C3[C@@H](c3ccc(N(C)C)cc3)OC[C@@]21C` (stereo partly shown) [Compound 7, 10-(4-Dimethylamino-phenyl)-1-hydroxy-12a-methyl-1-prop-1-ynyl-2,3,3a,3b,4,5,9,10,12,12a-decahydro-1H,8H-11-oxa-naphtho[2,1-e]azulen-7-one], the IC50 in assay [1] (Homo sapiens, A549, A549 cells) was 16.2 nM; in assay [2] (setting [4]), 116 nM.

On to `C#C[C@]1(O)CCC2C3CCC4=CC(=O)CCC4=C3[C@@H](c3ccc(OC)cc3)OC[C@@]21C` (stereo partly shown) [Compound 12, 1-Ethynyl-1-hydroxy-10-(4-methoxy-phenyl)-12a-methyl-2,3,3a,3b,4,5,9,10,12,12a-decahydro-1H,8H-11-oxa-naphtho[2,1-e]azulen-7-one], for which the IC50 was 118 nM in assay [1] (Homo sapiens, A549, A549 cells) and over 1000 nM in assay [2] (setting [4]).

Turning to `C=C(C)[C@]1(O)CCC2C3CCC4=CC(=O)CCC4=C3[C@@H](c3ccc(N(C)C)cc3)OC[C@@]21C` (stereo partly shown) [Compound 1, 10-(4-Dimethylamino-phenyl)-1-hydroxy-1-isopropenyl-12a methyl-2,3,3a,3b,4,5,9,10,12,12a-decahydro-1H,8H-11-oxa-naphtho[2,1 e]azulen-7-one], the IC50 in assay [1] (Homo sapiens, A549, A549 cells) turned out to be 50.1 nM; in assay [2] (setting [4]) it was 0.4 nM.

On to `CSc1ccc([C@H]2OC[C@]3(C)C(C#Cc4ccccc4)=CCC3C3CCC4=CC(=O)CCC4=C32)cc1` (stereo partly shown) [Compound 11, 12a-Methyl-10-(4-methylsulfanyl-phenyl)-1-phenylethynyl 3a,3b,4,5,9,10,12,12a-octahydro-3H,8H-11-oxa-naphtho[2,1-e]azulen-7-one], for which the IC50 was over 3000 nM in assay [1] (Homo sapiens, A549, A549 cells) and over 1000 nM in assay [2] (setting [4]).

For the compound `C#C[C@]1(O)CCC2C3CCC4=CC(=O)CCC4=C3[C@H](c3ccc(OC)cc3)OC[C@@]21C` (stereo partly shown) [Compound 13, 1-Ethynyl-1-hydroxy-10-(4-methoxy-phenyl)-12a-methyl 2,3,3a,3b,4,5,9,10,12,12a-decahydro-1H,8H-11-oxa-naphtho[2,1-e]azulen-7-one], the IC50 in assay [1] (Homo sapiens, A549, A549 cells) was 367 nM; in assay [2] (setting [4]), over 1000 nM.

As to `CN(C)c1ccc([C@H]2OC[C@]3(C)C(=O)CCC3C3CCC4=CC(=O)CCC4=C32)cc1` (stereo partly shown) [Compound 10, 10-(4-Dimethylamino-phenyl)-12a-methyl-2,3,3a,3b,4,5,9,10,12,12a-decahydro-8H-11-oxa-naphtho[2,1-e]azulene-1,7-dione], the IC50 in assay [1] (Homo sapiens, A549, A549 cells) is over 3000 nM; in assay [2] (setting [4]) it was 1800 nM.

`CC#C[C@]1(O)CCC2C3CCC4=CC(=O)CCC4=C3[C@@H](c3ccc(OC)cc3)OC[C@@]21C` (stereo partly shown) [Compound 14, 1-Hydroxy-10-(4-methoxy-phenyl)-12a-methyl-1-prop-1-ynyl-2,3,3a,3b,4,5,9,10,12,12a-decahydro-1H,8H-11-oxa-naphtho[2,1-e]azulen-7-one]: the IC50 in assay [1] (Homo sapiens, A549, A549 cells) is 46 nM; in assay [2] (setting [4]) it was over 1000 nM.

For `COc1ccc([C@H]2OC[C@@]3(C)C(CC[C@@]3(O)C#Cc3ccc(C(F)(F)F)cc3)C3CCC4=CC(=O)CCC4=C32)cc1` (stereo partly shown) [Compound 6, 1-Hydroxy-10-(4-methoxy-phenyl)-12a-methyl-1-(4-trifluoromethyl-phenylethynyl)-2,3,3a,3b,4,5,9,10,12,12a-decahydro-1H,8H-11-oxa-naphtho[2,1-e]azulen-7-one], the IC50 in assay [1] (A549 cells) came to 109 nM; in assay [2] (setting [3]) it was 83 nM.

Consider `CSc1ccc(C2OCC3(C)C(CCC3(O)C(F)(F)C(F)(F)F)C3CCC4=CC(=O)CCC4=C23)cc1` (stereo not shown) [Compound 4, 1-Hydroxy-12a-methyl-10-(4-methylsulfanyl-phenyl)-1-pentafluoroethyl-2,3,3a,3b4,5,9,10,12,12a-decahydro-1H,8H-11-oxa-naphtho[2,1-e]azulen-7-one], for which the IC50 in assay [1] (A549 cells) was 68.7 nM; in assay [2] (T47D cells, 24 h with test compound, alkaline phosphatase assay (SEAP kit), read-out: T47D IC50), 33.2 nM.

As to `COc1ccc([C@H]2OC[C@@]3(C)C(CC[C@@]3(O)C#Cc3ccc(C(C)(C)C)cc3)C3CCC4=CC(=O)CCC4=C32)cc1` (stereo partly shown) [Compound 9, 1-(4-tert-Butyl-phenylethynyl)-1-hydroxy-10-(4-methoxy-phenyl)-12a-methyl-2,3,3a,3b,4,5,9,10,12,12a-decahydro-1H,8H-11-oxa-naphtho[2,1-e]azulen-7-one], the IC50 in assay [1] (Homo sapiens, A549, A549 cells) stood at 626 nM; in assay [2] (setting [4]), 264 nM.

On to `C=CC[C@]1(O)CCC2C3CCC4=CC(=O)CCC4=C3[C@@H](c3ccc(OC)cc3)OC[C@@]21C` (stereo partly shown) [Compound 17, 1-Allyl-1-hydroxy-10-(4-methoxy-phenyl)-12a-methyl 2,3,3a,3b,4,5,9,10,12,12a-decahydro-1H,8H-11-oxa-naphtho[2,1-e]azulen-7-one], for which the IC50 in assay [1] (Homo sapiens, A549, A549 cells) is 114 nM; in assay [2] (setting [4]) it was over 1000 nM.

`COc1ccc([C@@H]2OC[C@@]3(C)C(CC[C@@]3(O)C#CC(F)(F)F)C3CCC4=CC(=O)CCC4=C32)cc1` (stereo partly shown) [Compound 20, 1-Hydroxy-10-[…]-(4-methoxy-phenyl)-12a-methyl-1-trifluoroprop-1-ynyl-2,3,3a,3b,4,5,9,10,12,12a-decahydro-1H,8H-11-oxa-naphtho[2,1-e]azulen-7-one]: the IC50 in assay [1] (Homo sapiens, A549, A549 cells) was over 3000 nM; in assay [2] (setting [4]) it was over 1000 nM.
